Reference: patent US10646475B2, “SHMT inhibitors” (The Trustees of Princeton University, priority 2015, dated 2020)
“Also recorded” adds a separate entry of the source.

Columns and labels:
human SHMT2 = target: T1, human SHMT2 (Homo sapiens, UniProt P34897); experiment: SHMT2 in vitro coupled enzymatic assay (coupled with excess MTHFD2, NADH absorption at 340 nm); type: biochemical; conditions: for IC50: inhibition of initial reaction velocity
T1 sequence (P34897 30-504): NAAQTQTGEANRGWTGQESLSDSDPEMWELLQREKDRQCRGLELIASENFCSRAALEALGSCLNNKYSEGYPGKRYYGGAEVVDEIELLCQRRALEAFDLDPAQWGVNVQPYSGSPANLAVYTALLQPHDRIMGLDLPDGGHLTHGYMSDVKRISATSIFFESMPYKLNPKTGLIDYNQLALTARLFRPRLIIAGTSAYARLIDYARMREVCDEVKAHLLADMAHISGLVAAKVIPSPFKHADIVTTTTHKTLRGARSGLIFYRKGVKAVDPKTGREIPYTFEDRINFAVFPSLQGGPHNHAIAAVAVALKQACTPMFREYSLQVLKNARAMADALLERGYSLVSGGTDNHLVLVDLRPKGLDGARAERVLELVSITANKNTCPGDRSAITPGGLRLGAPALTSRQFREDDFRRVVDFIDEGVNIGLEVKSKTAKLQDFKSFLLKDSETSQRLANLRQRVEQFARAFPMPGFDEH

human SHMT1 = target: T2, human SHMT1 (Homo sapiens, UniProt P34896); experiment: SHMT1 in vitro coupled enzymatic assay (coupled with excess MTHFD2, NADH absorption at 340 nm); type: biochemical; conditions: for IC50: inhibition of initial reaction velocity
T2 sequence (P34896 1-483): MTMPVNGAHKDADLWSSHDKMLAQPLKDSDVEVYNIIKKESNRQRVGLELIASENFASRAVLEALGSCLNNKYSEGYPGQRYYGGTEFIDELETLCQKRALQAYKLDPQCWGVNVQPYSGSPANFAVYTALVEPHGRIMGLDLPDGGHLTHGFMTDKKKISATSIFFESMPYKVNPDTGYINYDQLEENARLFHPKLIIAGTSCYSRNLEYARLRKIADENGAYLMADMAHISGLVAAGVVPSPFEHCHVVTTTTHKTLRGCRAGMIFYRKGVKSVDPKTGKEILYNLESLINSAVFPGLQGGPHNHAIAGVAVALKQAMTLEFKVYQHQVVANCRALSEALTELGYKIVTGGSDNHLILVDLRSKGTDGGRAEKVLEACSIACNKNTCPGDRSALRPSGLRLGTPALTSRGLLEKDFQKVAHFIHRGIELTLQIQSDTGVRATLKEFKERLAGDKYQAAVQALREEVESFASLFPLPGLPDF

human MTHFD2 = target: T3, human MTHFD2 (Homo sapiens, UniProt P13995); experiment: MTHFD2 in vitro assay (rate of NADH formation at 340 nm); type: biochemical; conditions: FIG. 3(c)
T3 sequence (P13995 36-350): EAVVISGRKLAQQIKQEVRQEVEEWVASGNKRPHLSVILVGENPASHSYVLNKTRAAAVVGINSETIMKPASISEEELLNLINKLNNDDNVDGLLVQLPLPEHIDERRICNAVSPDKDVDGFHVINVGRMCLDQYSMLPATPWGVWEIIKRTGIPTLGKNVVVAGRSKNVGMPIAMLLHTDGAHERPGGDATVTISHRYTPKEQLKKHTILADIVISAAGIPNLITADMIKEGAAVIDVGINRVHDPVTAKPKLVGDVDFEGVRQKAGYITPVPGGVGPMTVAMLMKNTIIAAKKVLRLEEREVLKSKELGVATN
Excerpt: For the MTHFD2 in vitro assay (FIG. 3(c)), the rate of NADH formation was directly monitored at 340 nm.

[1] = test system: human cells expressing SHMT2; experiment: Measurement of AICAR, marker for one-carbon unit stress, in cells; type: cell-based; conditions: treatment for 24 hours, increasing concentrations, FIG. 2(b)
Procedure: HEK-293T cells were cultured in 6-well plates in Dulbecco's modified eagle media (DMEM) without pyruvate with 10% dialysed fetal bovine serum in 5% CO2 at 37° C. […] Growth was quenched and metabolites extracted by aspirating media, washing cells with cold PBS, and immediately adding MeOH/water (80:20 at −80° C.). Supernatants from two rounds of extraction were combined, dried under N2, resuspended in water, placed in a 4° C. autosampler, and analyzed by reverse-phase ion-paring chromatography negative-mode electrospray-ionization high-resolution MS on a stand-alone orbitrap.
Generation of AICAR provides an assay to evaluate one-carbon unit stress. Inhibition of SHMT2 in cells decreases serine metabolism and leads to one-carbon stress. […] Such cells show high constitutive levels of 5-aminoimidazole-4-carboxamide ribonucleotide (AICAR), a marker for one-carbon unit stress, when cultured in media (left bar in FIG. 2(a)). This can be rescued by exogenous treatment with sodium formate (right bar in FIG. 2(a)).
(*) indicates AICAR was below the limit of detection.

[2] = test system: SHMT serine metabolic activity in SHMT2 expressing human cells; experiment: Isotope labeling of serine metabolism in cells (labeled serine, LC-MS); type: cell-based; conditions: uniformly labeled serine, FIG. 2(c)
Procedure: Using 2,3,3-^2H3-serine (D3-serine) as a tracer, mitochondrial flux was measured by quantifying the labeling pattern of dTTP, a downstream product of dTMP. […] This assay was used to examine mitochondrial serine flux and the effect of compounds of the disclosure on mitochondrial serine flux, in either wildtype or mutant cells.
Uniformly labeled serine is metabolized into various isoptomers in WT cells by the forward and reverse enzymatic activity of SHMT.

HEK293T cells = experiment: Cell growth assay (resazurin), wild-type HEK293T; type: cell-based, human; conditions: for inhibition of cell growth: varying concentrations
Procedure: HEK293T cells were cultured in 96-well plates in Dulbecco's modified eagle media (DMEM) without pyruvate with 10% dialysed fetal bovine serum (Invitrogen) in 5% CO2 at 37° C. 24 hours after plating, cells were treated with various concentrations of inhibitor. Growth was serially assessed using the resazurin (‘AlamarBlue’) assay.
(§1) The described cell lines used in Examples 9-11 were cultured in 96-well plates in Dulbecco's modified eagle media (DMEM) without pyruvate (CELLGRO) with 10% dialysed fetal bovine serum (Invitrogen) in 5% CO2 at 37° C. Approximately 2,500 cells were plated in each well in 90 uL of media. After 24 hours cells were treated with various concentrations of inhibitor (time=0 hours), with or without formate. Growth was assessed at multiple time points (time=0, 24, 48, 72 hours) through measurement of fluorescence at 595 nm (excitation at 535 nm) on a BioTek micro titer plate reader after incubation with resazurin (0.01 mg/mL for 1.5 hours). IC50 curves were generated from percent inhibition of growth at 72 hours.

[3] = test system: SHMT2 knock-out HEK293 cells; experiment: Cell growth assay (resazurin), SHMT2 knock-out 293T; type: cell-based, human; conditions: varying concentrations
Procedure: HEK293T cell lines mutant for SHMT1 and SHMT2 were created using the CRISPR-Cas9 system following standard published protocols. Single clones from successful transfections were grown up, genotyped and characterized.
(§2) Inhibitors of SHMT were evaluated in wildtype, SHMT2 knock-out, and MTHFD2 knock-out 293T cells (FIG. 6(a) and FIG. 6(b)).
as §1

[4] = test system: MTHFD2 knock-out HEK293T cells; experiment: Cell growth assay (resazurin), MTHFD2 knock-out 293T; type: cell-based, human; conditions: varying concentrations
Procedure: as §2, §1

[5] = test system: 8988T pancreatic cancer cells; experiment: Cancer cell growth assay (resazurin), 8988T; type: cell-based, human; conditions: 8988T (MTHFD1L mutation), varying concentrations, FIG. 7
Procedure: (§3) Inhibitors of SHMT were evaluated in various cancer cell lines. […] This cancer cell line comprises (harbors) a mutation in a component of the mitochondrial folate pathway. Specifically, one or more cells in this line comprise a mutation in the downstream mitochondrial folate enzyme, MTHFD1L.
as §1

[6] = test system: HCT116 human colon carcinoma cells; experiment: Cancer cell growth assay (resazurin), HCT116; type: cell-based; conditions: HCT116, varying concentrations, FIG. 7
Procedure: as §3, §1

Work on `Cc1n[nH]c2c1C(c1cc(C(F)(F)F)cc(C(F)(F)F)c1)(C1CCC1)C(C#N)=C(N)O2` (stereo not shown) [HK-12] yielded an IC50 (human SHMT2; Table A) of 168 nM, an IC50 (human SHMT2; table of Example 6) of 168 nM and an IC50 (human SHMT1; Table A) of 206 nM. For the same molecule, the IC50 (human SHMT1; table of Example 6) was 206 nM.
Work on `CC(C)c1n[nH]c2c1C(c1cc(C(F)(F)F)cc(C(F)(F)F)c1)(C(C)C)C(C#N)=C(N)O2` (stereo not shown) [KDG-12] yielded an IC50 (human SHMT2; table of Example 6) of 71 nM and an IC50 (human SHMT1; table of Example 6) of 9.3 nM.
With `Cc1n[nH]c2c1C(c1cc(C(F)(F)F)cc(C(F)(F)F)c1)(C(C)C)C(C#N)=C(N)O2` (racemic) [HK-16] the “inhibition of human MTHFD2 in enzymatic assays” value (“inhibition of human MTHFD2” below) (human MTHFD2) was “do not inhibit”, the AICAR accumulation [1] was “AICAR accumulation in a dose-dependent manner” and the “SHMT serine metabolic activity in cells” value [2] was “inhibited in cells by HK-16 in a dose-dependent manner”.
`Cc1n[nH]c2c1C(c1cc(Cl)cc(C(F)(F)F)c1)(C1CCC1)C(C#N)=C(N)O2` (stereo not shown) [HK-11] was tested, and the IC50 (human SHMT2; Table A) was 100 nM and the IC50 (human SHMT2; table of Example 6) was 100 nM.
`COc1cc(Cl)cc(C2(C(C)C)C(C#N)=C(N)Oc3[nH]nc(C)c32)c1` (stereo not shown) [HK-13] gave an IC50 (human SHMT2; Table A) of 500 nM and an IC50 (human SHMT2; table of Example 6) of 500 nM.
`COc1cccc(C2(C3CCC3)C(C#N)=C(N)Oc3[nH]nc(C)c32)c1` (racemic) [HK-2] was tested, and the “inhibition of human MTHFD2” value (human MTHFD2) was “do not inhibit”.
`Cc1nn(-c2ccccc2)c2c1C(c1cc(C(F)(F)F)cc(C(F)(F)F)c1)(C(C)C)C(C#N)=C(N)O2` (stereo not shown) [KDG-5] was tested, and the IC50 (human SHMT2; table of Example 6) was over 5000 nM and the IC50 (human SHMT1; table of Example 6) was over 5000 nM.
In the case of `Cc1nn(C)c2c1C(c1cc(C(F)(F)F)cc(C(F)(F)F)c1)(C(C)C)C(C#N)=C(N)O2` (stereo not shown) [KDG-4], the IC50 (human SHMT2; table of Example 6) is reported as over 5000 nM and the IC50 (human SHMT1; table of Example 6) is reported as over 5000 nM.
For `Cc1n[nH]c2c1C(c1cc(Cl)cc(C(F)(F)F)c1)(C(C)C)C(C#N)=C(N)O2` (racemic) [HK-15], the IC50 (human SHMT2; Table A) was 35 nM, the IC50 (human SHMT1; Table A) was 20 nM and the “inhibition of human MTHFD2” value (human MTHFD2) was “do not inhibit”.
In the case of `Cc1n[nH]c2c1C(c1cccc(Cl)c1)(C1CCC1)C(C#N)=C(N)O2` (stereo not shown) [HK-3], the IC50 (human SHMT2; Table A) is reported as 1190 nM and the IC50 (human SHMT2; table of Example 6) is reported as 1190 nM.
`COc1cccc(C2(C(C)C)C(C#N)=C(N)Oc3[nH]nc(C)c32)c1` (stereo not shown) [HK-6] was tested, and the IC50 (human SHMT2; Table A) was 4580 nM and the IC50 (human SHMT2; table of Example 6) was 4580 nM.
For `Cc1n[nH]c2c1C(c1cc(Cl)cc(Cl)c1)(C(C)C)C(C#N)=C(N)O2` (racemic) [HK-14], the IC50 (human SHMT2; Table A) was 131 nM and the IC50 (human SHMT1; Table A) was 67 nM.
`COc1cc(Cl)cc(C2(C3CCC3)C(C#N)=C(N)Oc3[nH]nc(C)c32)c1` (stereo not shown) [HK-9] gave an IC50 (human SHMT2; Table A) of 3460 nM and an IC50 (human SHMT2; table of Example 6) of 3460 nM.
For `Cc1n[nH]c2c1C(c1cc(Cl)cc(Cl)c1)(C1CCC1)C(C#N)=C(N)O2` (racemic) [HK-10], the IC50 (human SHMT2; Table A) was 159 nM.
For `Cc1n[nH]c2c1C(c1cccc(Cl)c1)(C(C)C)C(C#N)=C(N)O2` (stereo not shown) [HK-7], the IC50 (human SHMT2; Table A) was 400 nM and the IC50 (human SHMT2; table of Example 6) was 400 nM.
`Cc1n[nH]c2c1C(c1cc(C(F)(F)F)cc(C(F)(F)F)c1)(C(C)C)C(C#N)=C(N)O2` (stereo not shown) [HK-16 (PK-2)] was tested, and the “anti-SHMT2 activity of resolved enantiomers of HK-16” value (human SHMT2; FIG. 4(a)) was “confined to the enantiomer represented by “Peak 2””, the “activity against SHMT1 in an in vitro enzyme assay” value (human SHMT1; FIG. 4(b)) was “active” and the “rescue of growth inhibitory effects by formate” value (HEK293T cells; compound at 10 μM, co-culture with formate at 1 mM, FIG. 8) was “rescued”. The “inhibition of cell growth” value (HEK293T cells; FIG. 5, 6, listed as HK-16-P2) was “active”, the “inhibition of cell growth” value (HEK293T cells; FIG. 5, 6, listed as Peak 2) was “inhibited in a dose-dependent manner; also recorded: inhibited cell growth” and the “inhibition of cell growth” value ([3]; FIG. 6, listed as HK-16-P2) was “active; also recorded: increased sensitivity to inhibition”. For the same molecule, the “inhibition of cell growth” value ([3]; FIG. 6, listed as Peak 2) was “inhibited cell growth”, the “inhibition of cell growth” value ([4]; FIG. 6, listed as HK-16-P2) was “active; also recorded: increased sensitivity to inhibition” and the “inhibition of cell growth” value ([4]; FIG. 6, listed as Peak 2) was “inhibited cell growth”. The “inhibition of cancer cell growth” value ([5]; listed as HK-16 (peak 2)) was “more sensitive”, the “inhibition of cancer cell growth” value ([5]; listed as HK-16-P2) was “significantly more sensitive; also recorded: inhibited growth” and the “inhibition of cancer cell growth” value ([6]; listed as HK-16-P2) was “inhibits cancer cell growth; also recorded: inhibited growth”.
For `Cc1n[nH]c2c1C(c1cc(C(F)(F)F)cc(C(F)(F)F)c1)(C(C)C)C(C#N)=C(N)O2` (single isomer, unassigned) [HK-16 (PK-1)], the “inhibition of cell growth” value (HEK293T cells; FIG. 5, 6) was “not inhibited”, the “inhibition of cell growth” value (HEK293T cells; FIG. 5, 6, listed as HK-16-P1) was “significantly less or no effect” and the “inhibition of cell growth” value (HEK293T cells; FIG. 5, 6, listed as Peak 1) was “not appreciably inhibited; also recorded: little or no activity”. The “inhibition of cell growth” value ([3]; FIG. 6, listed as HK-16-P1) was “significantly less or no effect”, the “inhibition of cell growth” value ([3]; FIG. 6, listed as Peak 1) was “Some, although a lower degree of activity” and the “inhibition of cell growth” value ([4]; FIG. 6, listed as HK-16-P1) was “significantly less or no effect”. For the same molecule, the “inhibition of cell growth” value ([4]; FIG. 6, listed as Peak 1) was “Some, although a lower degree of activity” and the “inhibition of cancer cell growth” value ([6]; listed as HK-16-P1) was “does not inhibit cell growth”.
